From patent publication US20260103474A1, “NOVEL COMPOUNDS FOR THE DIAGNOSIS OF TDP-43 PROTEINOPATHIES” (AC IMMUNE SA, priority 2022, published 2026)

Tests used:
[1] = molecular target: T1, PD brain-derived a-synuclein aggregates (Homo sapiens, UniProt P37840); test: Micro-radiobinding direct binding on PD brain-derived a-synuclein aggregates; details: tritiated compound 0.6 to 200 nM
T1 construct: from tissue; host or cells: frozen brain tissue of PD donors, 1% sarkosyl-insoluble pellet
Experimental: (§1) The procedure was adapted from the protocol described in Spillantini et al., 1998. Frozen tissue blocks from PD donors were thawed on ice and homogenized using a glass dounce homogenizer. The homogenate was then centrifuged at 11,000×g (12,700 RPM) in an ultracentrifuge (Beckman, XL100K) for 20 minutes at 4° C. using a pre-cooled 70.1 rotor (Beckman, 342184). Pellets were resuspended in extraction buffer [10 mM Tris-HCl pH 7.4, 10% sucrose, […], 1% protease inhibitor (Calbiochem 539131), 1 mM EGTA, 1% phosphatase inhibitor (Sigma P5726 and P0044)] and centrifuged at 15,000×g (14,800 RPM, a 70.1 Ti rotor) for 20 minutes at 4° C. […]
(§2) PD brain-derived a-synuclein aggregates and AD brain-derived Tau PHF aggregates were spotted onto microarray slides. […] Quantification of signal was performed by using the image analysis software Beamage (ai4R). Non-specific signal was determined with an excess of non-radiolabelled compound (2 μM) and specific binding was calculated by subtracting the non-specific signal from the total signal. Competition was calculated as percentage, where 0% was defined as the specific binding in the presence of vehicle and 100% as the values obtained in the presence of excess of the non-radiolabelled a-syn reference compound. Ki values were calculated in GraphPad Prism7 by applying a nonlinear regression curve fit using a one site, specific binding model. […]

[2] = molecular target: human FTD Type A sarkosyl-insoluble brain extracts (Homo sapiens, UniProt Q13148); test: Kd determination by micro-radiobinding assay on FTD Type A extracts; format: binding; details: tritiated compound 1.29 to 300 nM
Experimental: Human brain extracts were prepared as described in Laferriere et al., 2019, Nature Neurosc. A sample of brain tissue (frontal or temporal cortex) was homogenized at 1:4 (w/v) ratio in the homogenization-solubilization (HS) buffer at 4° C. using tissue homogenizer (Precellys) with CKmix homogenization tubes. The following sequence was used for homogenization: 3 cycles of 30 seconds at 5000 rpm (with 15 seconds pause between each cycle). Homogenized samples were aliquoted and stored at −80° C. in 1.5 mL low protein binding tubes.
Brain homogenates were thawed on ice and resuspended in HS buffer to obtain a final concentration of 2% sarkosyl, 1 unit/μL Benzonase and 1 mM MgCl2. The samples were then incubated at 37° C. under constant shaking at 600 rpm on a thermomixer for 45 minutes (min). The supernatants were collected in a new tube (sarkosyl-soluble fraction, S1). The pellet was resuspended in 1000 μL of myelin floatation buffer and centrifuged at 20,000 g for 60 min at 4° C. The supernatant was carefully removed to remove all the floating lipids. This step was repeated if all the lipids could not be removed in a single step. The pellet was subsequently washed with Phosphate-Buffered Saline (PBS) and centrifuged for 30 min at 20,000 g at 4° C. The final pellet was resuspended in 200 μL PBS and stored at −80° C. (sarkosyl-insoluble fraction). The samples were analyzed by immunoblotting in denaturing conditions.
Human FTD sarkosyl-insoluble brain extracts were spotted onto microarray slides. The slides were incubated with [^3H]-Compounds 1, 7, 8, 9, 15, 16 and 17 in a range of concentrations, varying from 1.29 to 300 nM. After incubation, slides were washed and scanned by a real-time autoradiography system (BeaQuant, ai4R). Quantification of the signal was performed by using the Beamage image analysis software (ai4R). Non-specific signal was determined with an excess of non-radiolabeled compound 1, 7, 8, 9, 15, 16 and 17 (1 μM), respectively, and specific binding was calculated by subtracting the non-specific signal from the total signal.
The Kd (Dissociation constant) and R^2 (parameter ranging between 0.0 and 1.0 that quantifies the goodness of fit, and the best curve fit obtained with value of 1.0) were obtained by fitting the specific binding data with non-linear regression analysis, using a one-site specific binding model in GraphPad Prism8.

[3] = test system: Tau tangles; test: High resolution micro-autoradiography on AD brain sections; format: binding, human; details: tritiated compound 20 nM
Experimental: The protocol was adapted from Marquie et al., 2015. AD sections were incubated with [^3H]-Compound 1, [^3H]-Compound 17 or [^3H]-Tau reference compound at 20 nM for one hour at room temperature (RT). Sections were then washed as follows: One time in ice-cold 50 mM Tris-HCl pH 7.4 buffer for one minute, two times in 70% ice-cold ethanol for one minute, one time in ice-cold 50 mM Tris-HCl pH 7.4 buffer for one minute and finally rinsed briefly in ice-cold distilled water. Sections were subsequently dried and then exposed to Ilford Nuclear Emulsion Type K5 (Agar Scientific, AGP9281) in a light-proof slide storage box. After five days, the sections were developed by immersing them successively in the following solutions: 1.) Ilford Phenisol Developer (1:5 dilution in H2O, Agar Scientific, AGP9106), 2.) Ilfostop solution (1:20 dilution in H2O, Agar Scientific, AGP9104), 3.) Ilford Hypam Fixer (1:5 dilution in H2O, Agar Scientific, AGP9183) and finally rinsed with H2O.
Thioflavin S staining was performed on adjacent sections. For image acquisition, sections were mounted using ProLong Gold Antifade reagent (Invitrogen P36930) and imaged on a Panoramic150 Slide Scanner (3DHistech) with a 20× objective capturing separately brightfield and fluorescent images.

[4] = molecular target: T1, PD brain-derived a-synuclein aggregates; test: Micro-radiobinding competition assay against a-syn reference on PD brain-derived insoluble fraction; format: binding; details: against [3H]-reference a-syn compound
Experimental: as §1, §2

Chain of human FTD Type A sarkosyl-insoluble brain extracts (Q13148 263-414 limits assumed): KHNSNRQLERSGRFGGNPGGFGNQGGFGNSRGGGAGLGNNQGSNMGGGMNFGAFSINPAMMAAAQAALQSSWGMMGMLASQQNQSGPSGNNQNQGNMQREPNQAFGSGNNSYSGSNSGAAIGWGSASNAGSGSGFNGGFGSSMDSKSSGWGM

Compound | Direct binding in PD brain-derived a-synuclein aggregates [1] | Kd [2] | Micro-autoradiography silver grain accumulation on Tau tangles in AD brain sections [3] | Ki [4]
[3H]C([3H])(O)C1CCN(c2ccc(-c3nc4c(s3)C(=O)N(c3cccnc3)CC4)c(F)n2)CC1 [[^3H]-Compound 17, 2-(2-fluoro-6-(4-(hydroxymethyl-t2)piperidin-1-yl)pyridin-3-yl)-5-(pyridin-3-yl)-6,7-dihydrothiazolo[5,4-c]pyridin-4(5H)-one] | No significant binding | 25 ± 6 nM | No accumulation of silver grains on Tau tangles | –
[3H]c1cncc(N2CCc3nc(-c4cc([3H])c(N5CC[C@@H](F)C5)nc4F)sc3C2=O)c1 [[^3H]-Compound 1, tritiated 2-[2-fluoro-6-[(3R)-3-fluoropyrrolidin-1-yl]-3-pyridyl]-5-(3-pyridyl)-6,7-dihydrothiazolo[5,4-c]pyridin-4-one] | No significant binding | 69 ± 21 nM | No accumulation of silver grains on Tau tangles | –
O=C1c2sc(-c3ccc(N4CC[C@@H](F)C4)nc3F)nc2CCN1c1cccnc1 [Compound 1, 2-[2-fluoro-6-[(3R)-3-fluoropyrrolidin-1-yl]-3-pyridyl]-5-(3-pyridyl)-6,7-dihydrothiazolo[5,4-c]pyridin-4-one] | – | – | – | > 500 nM
